Laboratory results: patent US6482805B2 (Parker Hughes Institute, priority 1998, dated 2002)
Where two headings read alike, the source gives them in different places.

How the values were obtained:
[1] = system: normal human ectocervical epithelial cells; test: cells; type: cell-based; settings: 24 h, read-out: Ectocervical cells IC50
Method: The potential cytotoxicity of aryl phosphate derivatives of bromo-methoxy ZDV in comparison to N-9, against normal human ectocervical and endocervical epithelial cells (Clonetics Corporation, San Diego, Calif.), was measured using MTT (3-[4,5-dimethylthiazol-2-yl]-2,5-diphenyl tetrazolium bromide) cell viability assays (Boehringer Mannheim Corp., Indianapolis, Ind.) [see, D'Cruz O J, et al., Mol Hum Reprod 1999; 5:421-432; D'Cruz O J, et al., Contraception 1999; 59 (in press); and Uckun F M, et al., Antimicrob Agents Chemther 1998; 42:383-388]. Briefly, exponentially growing ectocervical and endocervical epithelial cells were seeded into 96-well plate at a density of 2×10^5 cells/well and incubated for 24 h at 37° C. prior to drug exposure. On the day of treatment, culture medium was carefully aspirated from the wells and replaced with fresh medium containing drug concentrations ranging from 3.9 μM to 1000 μm. Triplicate wells were used for each treatment. The cells were incubated with the various compounds for 24 hours at 37° C. in a humidified 5% CO2 atmosphere. To each well, 10 μl of MTT (0.5 mg/ml final concentration) was added and the plates were incubated at 37° C. for 4 hours to allow MTT to form formazan crystals by reacting with metabolically active cells. The formazan crystals were solubilized overnight at 37° C. in a solution containing 10% SDS in 0.01 M HCl. The absorbance of each well was measured in a microtiter reader at 540 nm and a reference wavelength of 690 nm. To translate the OD540 values into the number of live cells in each well, the OD540 values were compared to those of standard OD540 versus cell number curves generated for each cell line. The percent cell survival was calculated using the formula: % survival=live cell number[test]/live cell number[control]×100. The results were expressed as IC50 values. The IC50 was defined as the concentration required for 50% reduction in cell survival. Two separate experiments were performed in triplicate to assess the potential cytotoxicity of spermicidal WHI-07 analogues against ectocervical and endocervical epithelial cells.

human sperm = test: Time course of sperm immobilizing activity by CASA (Example 2); type: cell-based; settings: 100 μM
Method: At timed intervals, duplicate aliquots (4-μl) were transferred to two 20 μm Microcell chambers and sperm motility was assessed by CASA.

[2] = system: human sperm in donor semen; test: Sperm immobilizing activity in diluted semen / seminal plasma (Example 3); type: cell-based; settings: 200 μM, 3 hours, CASA
Method: Following 3 hours of incubation, duplicate aliquots (4-μl) were used for CASA.

[3] = system: binding of human sperm to human zona; test: Human sperm-zona binding assay (Example 5); type: cell-based
Method: The human sperm-zona recognition and binding assay appears to predict the in vitro and in vivo fertilization outcome. […] Due to the variable number of sperm binding to human eggs, the sperm-zona binding ratio was used to assess sperm-zona binding capacity.
Following coincubation, the number of tightly bound green (SYBR 14) and blue (SYTO 17) sperm were assessed by laser scanning confocal microscopy. Frozen human eggs (n=46) were thawed and rinsed three times in BWW-0.3% BSA, and in BWW-3.5% BSA, before addition of sperm suspension. […] The first aliquot was incubated with 2.5 μM SYBR 14 (Molecular Probes) and the second aliquot was incubated with 5 μM SYTO 17. Following 30 minutes of incubation, sperm motility was assessed by CASA. Motile sperm with intensely stained green or blue nuclei were washed twice in BWW and one million motile sperm labeled with SYBR 14 (green) and SYTO 17 (blue) were added to dish containing human zona (n=2) under mineral oil and coincubated for 4 hours. Following extensive washing of eggs to dislodge any loosely adherent sperm, the eggs were mounted on glass slides and examined under a BioRad MRC-1024 Laser Scanning Confocal Microscope as described above. Using fluorescence imaging, the fluorescence emission of SYBR-14 and SYTO-17 localized on the sperm head was simultaneously recorded using 598/40 nm, and 680 DF32 emission/filter respectively. Confocal images of Z-sections were obtained using a Nikon […] (NA 1.4) objective and Kalman collection filter. Digitized images were processed with the Adobe Photoshop software and final images were printed using a Fujix Pictography 3000 color printer. The number of tightly bound green and blue-colored sperm nuclei adherent to each human egg were counted from the Z-sections of fluorescence images of each egg on all focal planes and expressed as a binding ratio.

[4] = system: human sperm binding and penetration of zona-free hamster eggs; test: Zona-free hamster egg penetration assay (Example 6); type: cell-based; settings: 25 μM or 100 μM, 3 hours preincubation; P<0.001
Method: The heterologous zona-free hamster egg penetration assay appears to correlate with the in vivo fertilizing capacity of human sperm as well as the ability of human sperm to fertilize intact human eggs in vitro.
15, 471 (1976)]. Motile fractions of sperm (n=4) obtained by 90-45% Percoll gradient centrifugation and wash were resuspended in BWW-3.5% BSA medium (pH 7.4) and divided into aliquots of 20×10^6 sperm/ml and allowed to capacitate for 24 hours. […] After exposure to drugs, the control and WHI-treated sperm suspensions were washed in BWW-3.5% BSA medium. Sperm motility following capacitation and washing in BWW-3.5% BSA medium was assessed by CASA.
Frozen hamster eggs (Charles River Laboratories, Wilmington, Mass.) were thawed and transferred to 35 mm glass bottom microwells (Mat Tek Corporation, Ashland, Mass.) in BWW medium. To remove zona, the washed eggs were treated with 0.05% trypsin (Irvine Scientific) in BWW medium for 20 min and then transferred to BWW-3.5% BSA medium and washed three times. Fifteen to 45 zona-free eggs per test were transferred in 100 μl of BWW-3.5% BSA medium under mineral oil. […] The number of sperm bound per egg, the number of swollen sperm heads per egg, and the percentage of penetrated eggs were determined for control and test sperm. […]

[5] = system: cervicovaginal epithelium of female CD-1 mice; test: Cervicovaginal tissue inflammation after repetitive intravaginal application in mice (Example 8); settings: for neutrophils in cervicovaginal squamous epithelia (immunofluorescence): 5% in cream base intravaginally; for mice with inflammatory response or disruption of the squamous epithelia: 5% in cream base intravaginally daily for 5 or 20 days, 10 mice
Method: In particular, 30 female CD-1 mice, 6 months old were randomly divided into two groups (A and B). Each group was further divided into three subgroups of 5 mice. […] After 5 and 20 days respectively, mice were killed by cervical dislocation, and tissues from the genitourinary tract were fixed in 10% buffered formalin. To determine the degree of inflammation and membrane integrity of squamous epithelia, conventional paraffin-embedded sections (6-pm) were prepared and stained with hematoxylin and eosin and observed under 300× magnification with a Leica microscope interfaced with an image analysis system (Scion), and images were transferred to Adobe Photoshop software for printout. The four stages of the estrous cycle were determined histologically.
Following antigen retrieval by heating (93° C. for 10 min in 10 mM sodium citrate buffer, pH 6.0), sections were preincubated with 10% normal goat serum in PBS, treated with optimal dilution (5 μg/ml) of the mAb followed by FITC-conjugated goat anti-rat IgG (Pierce Chemical Co., Rockford, IL). Each incubation step lasted 60 min with 5 min PBS washes between each step. The slides were counterstained with PI (1 μg/ml), washed in deionized water, mounted in anti-fade (BioRad), and visualized by laser confocal microscopy as described above. Negative controls were carried out by replacing the primary mAb with PBS or using rat IgG2 as control mAb

[6] = MTT, mean ± SD of two experiments

## 5-Bromo-6-methoxy-5,6-dihydro-3′-azidothymidine 5′-[Phenyl methoxyalaninyl phosphate] [WHI-04]
[1]; [6]
  IC50: > 1000 µM

## 5-Bromo-6-methoxy-5,6-dihydro-3′-azidothymidine-5′-[(p-Fluorophenyl methoxyalaninyl phosphate] [WHI-06]
[1]; [6]
  IC50: 304 ± 79 µM

## 5-bromo-6-methoxy-5,6-dihydro-3 ′-azidothymidine-5 ′-(p-methoxyphenyl) methoxyalaninyl phosphate [WHI-05]
Human sperm
  exposure time to complete sperm immobilization: 60 min
  time required for 50% motility loss of progressively motile sperm: 17 min
[2]
  sperm motility after direct addition to semen diluted in PBS: complete loss of motility
[3]; sperm pretreated with 25 μM
  mean sperm-zona binding ratio: 0.18
[3]; sperm pretreated with 50 μM
  mean sperm-zona binding ratio: 0.07
[3]; sperm pretreated with 100 μM
  mean sperm-zona binding ratio: 0.10
[4]
  sperm binding to zona-free eggs: significant inhibition
[1]; [6]
  IC50: > 1000 µM

## CCCCCCCCCc1ccc(OCCOCCOCCOCCOCCOCCOCCOCCOCCO)cc1 [Compound N-9, nonoxynol-9, reference compound]
[1]; Homo sapiens, Epithelial cell, MTT, mean ± SD of two experiments
  IC50: 22 ± 8 µM
[5]
  neutrophils in cervicovaginal squamous epithelia (immunofluorescence): intense positive staining
  mice with inflammatory response or disruption of the squamous epithelia: 9 of 10

## COC(=O)C(C)NP(=O)(OCC1OC(N2C(=O)NC(=O)C(C)(Br)C2OC)CC1N=[N+]=[N-])Oc1ccc(Br)cc1 (centres unmarked) [WHI-07, 5-Bromo-6-methoxy-5,6-dihydro-3′-azidothymidine-5′-(p-Bromophenyl Methoxyalaninyl Phosphate)]
Human sperm
  exposure time to complete sperm immobilization: 30 min
  time required for 50% motility loss of progressively motile sperm: 6 min
[2]
  sperm motility after direct addition to semen diluted in PBS: complete loss of motility
[3]; sperm pretreated with 25 μM
  mean sperm-zona binding ratio: 0.088
[3]; sperm pretreated with 50 μM
  mean sperm-zona binding ratio: 0.039
[3]; sperm pretreated with 100 μM
  mean sperm-zona binding ratio: 0.009
[4]
  sperm binding to zona-free eggs: significant inhibition
[1]; Homo sapiens, Epithelial cell
  IC50: > 1000 µM
[5]
  neutrophils in cervicovaginal squamous epithelia (immunofluorescence): absence of neutrophils
  mice with inflammatory response or disruption of the squamous epithelia: none of the 10 mice
